Measurements from ChEMBL document CHEMBL4402583, “Rational Substitution of ε-Lysine for α-Lysine Enhances the Cell and Membrane Selectivity of Pore-Forming Melittin” (J Med Chem, 2020).
≈ marks a conversion by molar mass, not a printed value.

Legend:
[1] = test system: Enterococcus faecalis; assay: Resistance index, ratio of MIC for vancomycin-resistant Enterococcus faecalis 1010 measured after 14 serial passages by broth microdilution method to MIC for vancomycin-resistant Enterococcus faecalis 1010 incubated for 24 hrs by broth microdilution method; format: functional
[2] = test system: Enterococcus faecalis; assay: Ratio of MIC for Mel-5-resistant vancomycin-resistant Enterococcus faecalis 1010 to MIC for vancomycin-resistant Enterococcus faecalis 1010 incubated for 24 hrs by broth microdilution method; format: functional
[3] = test system: Enterococcus faecalis; assay: Antibacterial activity against vancomycin-resistant Enterococcus faecalis 1010 assessed as reduction in bacterial growth measured after 24 hrs by broth microdilution method; format: functional; details: Enterococcus faecalis, 1010, 24 h
[4] = test system: Enterococcus faecalis; assay: Antibacterial activity against Mel-5-resistant vancomycin-resistant Enterococcus faecalis 1010 assessed as reduction in bacterial growth measured after 24 hrs by broth microdilution method; format: functional; details: Enterococcus faecalis, 1010, 24 h
[5] = test system: NHDF; assay: Cytotoxicity against HDF cells at 250 ug/ml incubated for 24 hrs by Alexa Fluor […] phalloidin-FITC/Hoescht dye staining based fluorescence microscopic analysis; format: cell-based; details: human
[6] = Cytotoxicity against HDF cells assessed as cell viability at 125 ug/ml incubated for 24 hrs by MTS assay relative to control; format: cell-based; details: human, HDF cells (NHDF, human dermal fibroblasts); read-out: Activity
[7] = test system: Acinetobacter baumannii; assay: Antibacterial activity against multidrug-resistant Acinetobacter baumannii assessed as reduction in bacterial growth incubated for 24 hrs by broth microdilution method; format: functional
[8] = test system: Enterobacteriaceae; assay: Antibacterial activity against Carbapenem-Resistant Enterobacteriaceae assessed as reduction in bacterial growth incubated for 24 hrs by broth microdilution method; format: functional
[9] = test system: Pseudomonas aeruginosa; assay: Antibacterial activity against Pseudomonas aeruginosa assessed as reduction in bacterial growth incubated for 24 hrs by broth microdilution method; format: functional
[10] = test system: Staphylococcus aureus; assay: Antibacterial activity against methicillin-sensitive Staphylococcus aureus assessed as reduction in bacterial growth incubated for 24 hrs by broth microdilution method; format: functional
[11] = Cytotoxicity against HDF cells assessed as cell viability at 250 ug/ml incubated for 24 hrs by MTS assay relative to control; format: cell-based; details: human, HDF cells (NHDF, human dermal fibroblasts); read-out: Activity
[12] = Cytotoxicity against HDF cells assessed as minimum cytotoxic concentration incubated for 24 hrs by Alexa Fluor […] phalloidin-FITC/Hoescht dye staining based fluorescence microscopic analysis; format: cell-based; details: human, HDF cells (NHDF, human dermal fibroblasts)
[13] = test system: Lipid bilayer; assay: Induction of pore formation in zwitterionic DOPC/cholesterol large unilamellar vesicles assessed as calcein release at 0.39 to 50 uM measured for 60 mins by fluorescence based assay
[14] = test system: Candida albicans; assay: Antifungal activity against Candida albicans assessed as reduction in fungal growth incubated for 24 hrs by broth microdilution method; format: functional
[15] = Cytotoxicity against HDF cells assessed as minimum cytotoxic concentration incubated for 24 hrs by MTS assay; format: cell-based; details: human, HDF cells (NHDF, human dermal fibroblasts)
[16] = test system: Enterococcus; assay: Antibacterial activity against vancomycin-resistant Enterococcus assessed as reduction in bacterial growth incubated for 24 hrs by broth microdilution method; format: functional
[17] = test system: NHDF; assay: Cytotoxicity against HDF cells assessed as reduction in metabolic activity at 500 ug/ml incubated for 24 hrs by MTS assay relative to control; format: ADME, cell-based; design: scale not given: the % may be the effect or the level left; details: human
[18] = test system: Staphylococcus aureus; assay: Antibacterial activity against methicillin-resistance Staphylococcus aureus assessed as reduction in bacterial growth incubated for 24 hrs by broth microdilution method; format: functional
[19] = test system: Staphylococcus aureus; assay: Antibacterial activity against Staphylococcus aureus assessed as reduction in bacterial growth incubated for 24 hrs by broth microdilution method; format: functional
[20] = test system: Lipid bilayer; assay: Induction of pore formation in negatively charged DOPE/DOPG large unilamellar vesicles assessed as calcein release at 0.39 to 50 uM measured for 60 mins by fluorescence based assay

For `CCCCCCCCCC(=O)N[C@@H](Cc1c[nH]c2ccccc12)C(=O)N[C@H](CC(N)=O)C(=O)N[C@@H](CC(=O)O)C(=O)N[C@@H]1C(=O)NCC(=O)N[C@@H](CCCN)C(=O)N[C@@H](CC(=O)O)C(=O)N[C@H](C)C(=O)N[C@@H](CC(=O)O)C(=O)NCC(=O)N[C@H](CO)C(=O)N[C@@H]([C@@H](C)CC(=O)O)C(=O)N[C@@H](CC(=O)c2ccccc2N)C(=O)O[C@@H]1C`, the Ratio [1] was 4, the Ratio [2] was >128 and the MIC [3] was 64 µg/mL (≈ 39.5 µM). For the same compound, the MIC [4] was > 512 µg/mL.
In the case of `CC[C@H](C)[C@H](NC(=O)CN)C(=O)NCC(=O)N[C@@H](C)C(=O)N[C@H](C(=O)N[C@@H](CC(C)C)C(=O)NCCC[C@@H](CN)C(=O)N[C@H](C(=O)N[C@@H](CC(C)C)C(=O)N[C@H](C(=O)N[C@H](C(=O)NCC(=O)N[C@@H](CC(C)C)C(=O)N1CCC[C@H]1C(=O)N[C@@H](C)C(=O)N[C@@H](CC(C)C)C(=O)N[C@H](C(=O)N[C@@H](CO)C(=O)N[C@@H](Cc1c[nH]c2ccccc12)C(=O)N[C@H](C(=O)N[C@@H](CCCCN)C(=O)N[C@@H](CCCNC(=N)N)C(=O)N[C@@H](CCCCN)C(=O)N[C@@H](CCCNC(=N)N)C(=O)N[C@@H](CCC(N)=O)C(=O)N[C@@H](CCC(N)=O)C(N)=O)[C@@H](C)CC)[C@@H](C)CC)[C@@H](C)O)[C@@H](C)O)C(C)C)C(C)C`, the Activity [5] is reported as “Toxic”, the viability at 24 h, 125 ug/ml [6] is reported as 112% and the MIC [7] is reported as 2 to 4 µg/mL (≈ 0.703 to 1.41 µM). For the same compound, the MIC50 [7] was 2 µg/mL (≈ 0.703 µM), the MIC [8] was 4 to 64 µg/mL (≈ 1.41 to 22.5 µM) and the MIC50 [8] was 8 µg/mL (≈ 2.81 µM). It also gave an MIC [9] of 8 to 64 µg/mL (≈ 2.81 to 22.5 µM), an MIC50 [9] of 16 µg/mL (≈ 5.62 µM) and an MIC [10] of 4 to 32 µg/mL (≈ 1.41 to 11.2 µM). For the same compound, the MIC50 [10] was 16 µg/mL (≈ 5.62 µM), the viability at 24 h, 250 ug/ml [11] was 32.4% and the MCC at 24 h [12] was > 125 µg/mL. For the same compound, the Activity [13] was 7.8%, the MIC [14] was 4 to 8 µg/mL (≈ 1.41 to 2.81 µM) and the MIC50 [14] was 4 µg/mL (≈ 1.41 µM). For the same compound, the MCC at 24 h [15] was > 125 µg/mL, the MIC [16] was 4 to 32 µg/mL (≈ 1.41 to 11.2 µM) and the MIC50 [16] was 8 µg/mL (≈ 2.81 µM). It also gave an Activity [17] of 100%, an MIC50 [18] of 16 µg/mL (≈ 5.62 µM) and an MIC [19] of 8 to 32 µg/mL (≈ 2.81 to 11.2 µM). For the same compound, the Activity [20] was 41.8%.
